From patent US6875736B2, “Methods for identifying RNA binding compounds” (priority 1999, dated 2005)
Non-standard residues stand in square brackets, D forms with d. Residues, ends and D or L forms follow the SMILES beside them.

Experiments:
wild-type TAR RNA = test: Solid-phase RNA-peptide binding assay (dissociation constant); design: species or system HIV-1; details: for KREL: KD of a basic Tat peptide / KD of inhibitor; for Kd: wild-type TAR RNA, TK buffer, overnight at 4° C., four independent experiments; for dissociation constant relative to tripeptide ID#1 (times higher): diastereomers of tripeptide ID#1
From the text: Solid-phase RNA-peptide binding assays. TAR RNA binding compounds found and decoded as described above (shown in Table 1) were synthesized on TENTAGEL S-NH2 (4.6 μmole). All fluorenylmethoxycarbonyl (Fmoc)-protected amino acids were purchased from Bachem (Torrance, Calif.). 1-hydroxybenzotriazole (HOBT) and diisopropylcarbodiimide (DIPCDI) were obtained from Aldrich Chemical Co., Milwaukee, Wis. Piperidine and trifluoroacetic acid were purchased from Applied Biosystems Division, Perkin-Elmer. All ligands were synthesized manually according to standard solid-phase peptide synthesis protocols. Coupling efficiencies of residues at each step were monitored using a standard Kaiser test. Deprotection of tripeptides was carried out in 10% water in trifluoroacetic acid (1 mL) for 16 hours at room temperature. After filtration of solvents, the resin was washed with water (1 mL×4), DMF (1 mL×4), and dichloromethane (1 mL×4), and dried under reduced pressure. Ten beads with attached tripeptides were placed in an Eppendorff tube and washed with TK buffer (200 μL×3). The beads were suspended in TK buffer (300 μL) and incubated with TAR RNA (1.95 μM) overnight at 4° C. The suspension was spun in a centrifuge, and the supernatant containing unbound RNA was transferred to a cuvette for optical density measurements at 260 nm using a Shimadzu UV-1601 spectrometer. Equilibrium concentrations of RNA were determined from these measurements. Given that the initial concentrations of ligand and RNA are known, and assuming simple bimolecular receptor/substrate binding, a dissociation constant (KD) was calculated from known equations in order to determine which test compounds bind TAR RNA most tightly.
To verify that this assay reflected RNA-tripeptide interactions and to determine the affinity of these tripeptides for TAR RNA, the eight tripeptides were resynthesized and their dissociation constants with wild-type TAR RNA were measured. […] To compare the RNA binding affinities of 8 ligands to natural Tat peptide, a Tat-derived peptide (Gly48 to Arg57) containing the RNA-binding region of Tat protein was synthesized (FIG. 2(b)) (SEQ. ID. NO. 2). The dissociation constant of the Tat peptide-RNA complex was determined under the same conditions used for the tripeptide-RNA complexes. […] A relative dissociation constant (KREL) can be calculated as the ratios of the Tat peptide to tripeptide dissociation constants (KD) for TAR RNA. Tripeptide ID #1 binds TAR RNA with affinities higher than the wild-type Tat peptide.

TAR RNA [1] = test: On-bead screening of encoded tripeptide library with disperse red-labeled TAR RNA; type: binding, HIV-1; details: for Color: bead colour with 250 nM disperse red-labeled TAR RNA, 4° C., red after 2 days, pink-red after 3 further days; for Frequency: number of stained beads decoded with this sequence, three copies of library, bead peptides N-acetylated
Description: Screening the library with TAR RNA. Three copies of the tripeptide library on encoded beads, which contain more than 95% of the members of the library, were placed in an eppendoff tube and washed with water (500 μL×5) and TK buffer (50 mM Tris-HCl (pH 7.4), 20 mM KCl, 0.1% Triton X-100) (500 μL×4), which is commonly used for the formation of Tat-TAR complexes in vitro (Churcher et al. (1993) J. Mol. Biol. 230, 90-110). After filtration, the beads were suspended in TK buffer (400 μL) and bovine serum albumin (0.1 mg/mL) at room temperature for 1 hour to reduce nonspecific binding. The aqueous phase was removed, and the beads were washed with TK buffer (500 μL×3). After filtration, the beads were resuspended in […] TK buffer, 2.5 μM of bulge mutant TAR RNA was added, and the suspension was stirred at 4° C. for 1 day. The buffer was removed, the beads were resuspended in […] TK buffer, and 250 nM disperse red-dye-labeled-TAR RNA and 2.5 μM bulge mutant TAR RNA were added. After 2 days of stirring at 4° C., the buffer was removed, and the remaining beads were washed with water (500 μL×3). Two red beads were picked under a microscope and placed in separate capillary tubes. The remaining beads were further incubated with a mixture of disperse-red-dye-labeled TAR RNA and bulge mutant TAR RNA for 3 days, as described above. During the second screening, eight beads turned red. These beads were picked and placed in capillary tubes.
Decoding the structures of RNA-binding ligands. A disperse-red dye labeled encoded bead was placed in a 25 μL micro capillary tube containing dimethylformamide (DMF) (2 μL) and the bead was washed with DMF(5 μL×4). After draining the solvent, the bead was resuspended in 2 μL DMF and the micro capillary tube was centrifuged for 4 min and then flame sealed. Each capillary tube containing a bead was then irradiated with UV radiation at 350 nm for 4 hours and spun for 5 minutes in a centrifuge. The capillary tube was opened and the cleaved tag alcohols were silylated with N, O-bis(trimethylsilyl)acetamide in a micro syringe. The N, O-bis(trimethylsilyl)acetamide derivatives (1 μL) were analyzed using electron capture gas chromatography (“ECGC”). A Hewlett Packard 6890 series Gas Chromatography system, equipped with a micro electron capture detector (μ-ECD) and a HP Chemstation operating system, was used for all decoding analyses. The GC was operated in splitless inlet mode, using helium as the carrier gas. A 35 m×0.2 mm i.d.×0.33 μm film thickness HP-Ultra 1 column was used with a temperature program of 1 min isothermal at 200° C. followed by heating at 10° C./min to 320° C. The μ-ECD make up gas was nitrogen.
On-bead selection of structure-specific TAR RNA binding compounds. To identify tripeptides that bind to TAR RNA, the dye disperse red was covalently attached to TAR RNA, and the labeled RNA was incubated in a suspension of library beads made using the split synthesis method. […] Nevertheless, the dye-TAR RNA conjugate was able to enter the beads and bind in a structure-dependent manner to tripeptides attached thereto. The red color of the dye was clearly evenly distributed throughout the translucent bead. Broken beads were not selected. Peptides specific for portions of TAR RNA other than the bulge region were blocked using a relatively large concentration of an unlabeled bulge mutant TAR RNA. A small amount of detergent and low RNA concentrations (250 nM) also minimized non-specific binding.
Ligand Sequence Analysis. Upon incubating the dye-TAR RNA conjugate with the library, only two beads were stained red. These two beads were separated from the rest of the library, which was allowed to incubate with the dye-TAR RNA conjugate for 3 days at 4° C. […] At the end of the second incubation, only eight additional beads were stained pink-red.

[2] = tested on: Tat trans-activation (HIV-1 LTR promoter, CAT reporter gene); test: Inhibition of Tat trans-activation in HL3T1 cells (CAT reporter); type: cell-based
Description: (§1) Inhibition of Tat trans-activation in cellular assays. […] Cells were grown in 2 mL of Dulbecco's modified Eagle medium (DMEM) supplemented with 10% fetal calf serum in 60 mm dishes at 37° C. in 5% CO2 in a tissue culture incubator. Cells were refreshed by 2 mL DMEM before transfection. Transfection was started by dropwise addition of 250 μL 2×Hepes-buffered saline and maintenance at room temperature for 10 minutes. Approximately 10 μg of plasmids (pSV2Tat and pAL) and increasing amounts of tripeptide 1 were transfected in the presence of CaCl2 (final concentration 125 mM) and the cells were incubated for 4 hours at 37° C. in a tissue culture incubator. The medium was then discarded and the cells were subjected to glycerol shock (1.5 mL of 15%) for 45 seconds. Finally, the cells were washed twice with 5 mL phosphate-buffered saline (PBS) and were grown in 3 mL DMEM. DMEM was changed at 24 hours post-transfection, and cells were harvested 48 hours post-transfection. Cells were lysed in reporter lysis buffer (Promega). Aliquots were used for CAT and luciferase assays. Both activities were normalized to protein concentration determined by using a modified Bradford assay (Bio-Rad).
(§2) Inhibition of Tat trans-activation in vivo. […] Luciferase reporter gene provides an internal control.

TAR RNA [3] = test: NMR (TOCSY/NOESY) of TAR RNA with ligand; type: binding, HIV-1; details: 1 to 2 mM RNA and ligand, 5 mM phosphate buffer pH 5.5
Description: NMR Spectroscopy. NMR experiments were performed to determine the interaction sites of tripeptide ID#1 on TAR RNA. NMR spectra of free TAR RNA and TAR RNA complexed with tripeptide ID#1 were recorded. Due to the spectral overlap, it was impossible to follow all but a few well-isolated resonances by conventional 1-dimensional experiments. Therefore, two-dimensional NOESY and TOCSY experiments were performed. All spectra were recorded on a Bruker AMX-500 NMR spectrometer operating at 500 MHz for ^1H equipped with triple resonance probe and H-broadband inverse detection probes. The 1D and 2D ^1H spectra were recorded at approximately 1 to 2 mM RNA and tripeptide ID#1 concentrations in 5 mM phosphate buffer (pH 5.5), with up to 100 mM NaCl. All other conditions were the same as described earlier by Aboul-ela et al. ((1995) J. Mol. Biol. 253, 313-332.). Complete TAR RNA assignments were obtained. Increasing amounts of tripeptide 1 were added to TAR RNA and the spectral changes were monitored by two-dimensional TOCSY experiments. The TOCSY spectrum contains a region where only pyrimidine H5-H6 resonances are found; this region has a well-dispersed 2D spectrum. Resonances in the free RNA and RNA-ligand complexes were assigned by NOESY experiments. […]

dye-labeled TAR RNA = test: Equilibrium interaction of dye-labeled TAR RNA with bead-tethered tripeptide; type: binding, HIV-1; details: dye-labeled TAR RNA 1 μM, TK buffer, 4° C., 5 hours
Description: Second, the equilibrium interaction between dye-labeled TAR RNA and a tripeptide tethered to beads was examined by incubating a suspension of beads containing tripeptide ID#1 in TK buffer (400 μL) with dye-labeled TAR RNA (1 μM) at 4° C. for 5 hours. Beads were stained red upon TAR RNA binding. The interaction between dye-labeled TAR RNA and tripeptide ID #1 is reversible and can be abolished by the addition of unlabeled TAR RNA or tripeptide ID#1 as a competitor. Finally, screening the library with dye-labeled TAR RNA was carried out in the presence of excess unlabeled bulge mutant TAR RNA, inhibiting non-specific TAR RNA-peptide interactions.

luciferase gene = test: Luciferase internal control in HL3T1 cells (pAL plasmid); type: cell-based; details: increasing amounts of ligand
Description: as §1, §2

Compound | KREL (wild-type TAR RNA) | Kd (wild-type TAR RNA) | Color (TAR RNA [1]) | Frequency (TAR RNA [1]) | dissociation constant relative to tripeptide ID#1 (times higher) (wild-type TAR RNA) | inhibitory effect on Tat transactivation ([2]; control ligands) | shift of TAR RNA resonances in TOCSY spectra (TAR RNA [3]) | Kd (wild-type TAR RNA; listed as tripeptide ID#1) | Tat trans-activation inhibited ([2]; 700 nM, CAT activity) | bead staining upon dye-labeled TAR RNA binding (dye-labeled TAR RNA) | Transcription of the luciferase gene (luciferase gene) | Cell viability / toxicity to the cells (HL3T1 cells)
H2N-(D)Thr-(D)Lys-(L)Phe-OH [ID #8] | 0.35 | 2090 nM | Pink | 1 | – | – | – | – | – | – | – | –
H2N-(L)Lys-(D)Lys-(D)Asn-OH [ID #2] | 0.17 | 4170 nM | Pink | 1 | approximately 7 times | – | – | – | – | – | – | –
N=C(N)NCCC[C@H](N)C(N)=O [L-argininamide, reference compound] | – | – | – | – | – | no inhibitory effect | – | – | – | – | – | –
H2N-(D)Thr-(D)Lys-(L)Asn-OH [ID #7] | 1.29 | 564 ± 80 nM | Pink | 1 | – | – | – | – | – | – | – | –
H2N-(L)Lys-(L)Lys-(L)Asn-OH [ID #3] | 0.23 | 3220 nM | Pink | 2 | approximately 7 times | – | – | – | – | – | – | –
H2N-(L)Arg-(D)Lys-(L)Val-OH [ID #5] | 0.07 | 10400 nM | Pink | 1 | – | – | – | – | – | – | – | –
NCCCC[C@H](N)C(=O)N[C@H](CCCCN)C(=O)N[C@@H](CC(N)=O)C(=O)O [ID #1, H2N-(L)Lys-(D)Lys-(L)Asn-OH] (H-Lys-[dK]-Asn-OH) | 1.73 | 420 ± 44 nM | Red | 2 | – | – | Resonances in the bulge region, U23 and C24, were shifted | 441 nM | more than 90% | stained red | not affected | not toxic
H2N-(L)Arg-(D)Lys-(L)Asn-OH [ID #4] | 0.28 | 2640 nM | Pink | 1 | – | – | – | – | – | – | – | –
GRKKRRQRRR [Tat peptide, reference compound] | – | 698 nM | – | – | – | – | – | – | – | – | – | –
H2N-(L)Arg-(D)Lys-(L)Arg-OH [ID #6] | 0.83 | 878 ± 80 nM | Pink | 1 | – | – | – | – | – | – | – | –
